Experimental data reported in PubChem BioAssay AID624374 (Broad Institute, 2012).
Records with an inconclusive call do not appear. Calls of active or inactive are those of the source. No rule for the calls is given here.

test system: HEK293 viability counterscreen, plate reader; test: HEK293 cell viability, dose response, counter-screen for EBV LMP1 inhibitor project, dry powder, set 2 (AID 624374)

SMILES	AC35
Cc1cc(C(=O)Nc2ccc3c(c2)C(=O)N(C)[C@@H]2CC[C@@H](CC(=O)NCc4ccc(-c5ccccc5)cc4)O[C@H]2CO3)no1	> 35 µM (inactive)
COc1ccccc1CNC(=O)C[C@@H]1C[C@H]2c3cc(NC(=O)c4ccc5c(c4)OCO5)ccc3O[C@H]2[C@H](CO)O1	> 35 µM (inactive)
O=C(C[C@@H]1C[C@@H]2c3cc(NS(=O)(=O)c4ccc(F)cc4)ccc3O[C@@H]2[C@@H](CO)O1)NCc1ccc(Oc2ccccc2)cc1	20.8 µM
O=C(C[C@H]1C[C@@H]2c3cc(NS(=O)(=O)c4ccc(F)cc4)ccc3O[C@@H]2[C@@H](CO)O1)NCc1ccc(Oc2ccccc2)cc1	23.1 µM
